The source made the active and inactive calls. Rule as the data show it, for most assays here: actives have a measured EC50 and inactives only a lower limit.
These molecules were tested on Streptococcus sp. 'group A' (assay: growth inhibition of control SK(-) GAS strain, dose response, counter-screen for streptokinase expression inhibitor project, luminescence, kanamycin, BacTiterGlo, confirmation (AID 1900)). Settings: not given.
Format: functional, organism-based

SMILES	EC50
Cc1ccc(Nc2cc(C)nn2-c2nc(C)cc(O)n2)cc1	< 0.06 µM (active)
Cc1ccc(C(=O)c2c(C)oc3c2C(=O)C(=O)c2ccccc2-3)cc1	0.566 µM (active)
O=C1C(O)=C/C(=N\c2ccccc2O)c2ccccc21	3.4 µM (active)
CN(C)c1ncc(C2=C(Cl)C(=O)C(N3CCCC3)=C(Cl)C2=O)s1	24.5 µM (active)

These molecules were tested on Streptococcus (assay: Group A Streptococcus viability loss, dose response, counter-screen for streptokinase expression inhibitor project, luminescence, BacTiterGlo (AID 1915)). Settings: not given.
Format: functional, organism-based

SMILES	EC50
Cc1ccc(Nc2cc(C)nn2-c2nc(C)cc(O)n2)cc1	0.065 µM (active)
Cc1ccc(C(=O)c2c(C)oc3c2C(=O)C(=O)c2ccccc2-3)cc1	13.6 µM (active)
O=C1C(O)=C/C(=N\c2ccccc2O)c2ccccc21	> 150 µM (not active)
CN(C)c1ncc(C2=C(Cl)C(=O)C(N3CCCC3)=C(Cl)C2=O)s1	135 µM (active)

Each molecule was assayed against T1, Apoptotic protease-activating factor 1 (Homo sapiens, UniProt O14727). Settings: not given.
T1 sequence (O14727 whole entry): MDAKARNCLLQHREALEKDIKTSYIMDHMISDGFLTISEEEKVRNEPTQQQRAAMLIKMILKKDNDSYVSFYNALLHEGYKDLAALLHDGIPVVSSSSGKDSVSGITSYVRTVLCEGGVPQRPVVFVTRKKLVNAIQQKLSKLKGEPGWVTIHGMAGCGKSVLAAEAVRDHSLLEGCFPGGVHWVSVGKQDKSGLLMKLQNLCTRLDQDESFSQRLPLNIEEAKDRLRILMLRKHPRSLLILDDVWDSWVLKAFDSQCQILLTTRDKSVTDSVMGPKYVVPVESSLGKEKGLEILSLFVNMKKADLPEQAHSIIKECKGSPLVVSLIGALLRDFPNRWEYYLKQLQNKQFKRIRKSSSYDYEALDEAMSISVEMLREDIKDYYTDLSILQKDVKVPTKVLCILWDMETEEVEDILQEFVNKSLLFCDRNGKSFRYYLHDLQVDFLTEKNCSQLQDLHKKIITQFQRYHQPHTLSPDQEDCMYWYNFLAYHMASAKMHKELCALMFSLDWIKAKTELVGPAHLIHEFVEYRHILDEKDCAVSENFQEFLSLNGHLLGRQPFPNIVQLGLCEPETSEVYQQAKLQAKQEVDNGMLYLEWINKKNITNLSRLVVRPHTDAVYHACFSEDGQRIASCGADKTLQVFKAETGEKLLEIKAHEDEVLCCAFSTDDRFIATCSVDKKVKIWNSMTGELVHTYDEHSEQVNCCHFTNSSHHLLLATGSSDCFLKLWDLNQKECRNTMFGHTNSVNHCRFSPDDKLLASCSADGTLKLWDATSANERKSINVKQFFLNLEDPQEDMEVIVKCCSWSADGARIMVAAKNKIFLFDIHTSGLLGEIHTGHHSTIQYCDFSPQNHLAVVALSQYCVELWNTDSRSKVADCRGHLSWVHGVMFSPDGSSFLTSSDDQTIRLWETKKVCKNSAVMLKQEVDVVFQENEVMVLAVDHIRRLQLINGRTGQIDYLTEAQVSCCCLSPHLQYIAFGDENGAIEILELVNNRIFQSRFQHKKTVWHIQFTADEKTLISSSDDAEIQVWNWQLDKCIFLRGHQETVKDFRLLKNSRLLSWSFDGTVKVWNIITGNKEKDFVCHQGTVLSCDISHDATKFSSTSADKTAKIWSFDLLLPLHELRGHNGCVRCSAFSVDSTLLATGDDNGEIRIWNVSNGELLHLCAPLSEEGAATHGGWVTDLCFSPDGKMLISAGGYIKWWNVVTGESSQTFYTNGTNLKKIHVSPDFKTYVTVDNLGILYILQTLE
Format: functional

SMILES	IC50
O=C1C(Cl)=C(NCc2cccnc2)C(=O)c2ccccc21	10.1 µM (active)
Nc1ccc(Br)c2cccnc12	39.1 µM (active)
Cc1ccc(C(=O)c2c(C)oc3c2C(=O)C(=O)c2ccccc2-3)cc1	8.09 µM (active)
O=C1C(O)=C/C(=N\c2ccccc2O)c2ccccc21	2.61 µM (active)
CN(C)c1ncc(C2=C(Cl)C(=O)C(N3CCCC3)=C(Cl)C2=O)s1	25 µM (active)

The molecules below were run against T2, Protein RecA (Mycobacterium tuberculosis, UniProt P9WHJ3) (assay: Fluorescence Cell-Free Homogeneous Dose Retest to Identify Inhibitors of RecA-Intein Splicing Activity. [Related pubchem assays (depositor defined):AID2097, AID2223, AID489010, AID492950]). Settings: not given.
T2 sequence (P9WHJ3 whole entry): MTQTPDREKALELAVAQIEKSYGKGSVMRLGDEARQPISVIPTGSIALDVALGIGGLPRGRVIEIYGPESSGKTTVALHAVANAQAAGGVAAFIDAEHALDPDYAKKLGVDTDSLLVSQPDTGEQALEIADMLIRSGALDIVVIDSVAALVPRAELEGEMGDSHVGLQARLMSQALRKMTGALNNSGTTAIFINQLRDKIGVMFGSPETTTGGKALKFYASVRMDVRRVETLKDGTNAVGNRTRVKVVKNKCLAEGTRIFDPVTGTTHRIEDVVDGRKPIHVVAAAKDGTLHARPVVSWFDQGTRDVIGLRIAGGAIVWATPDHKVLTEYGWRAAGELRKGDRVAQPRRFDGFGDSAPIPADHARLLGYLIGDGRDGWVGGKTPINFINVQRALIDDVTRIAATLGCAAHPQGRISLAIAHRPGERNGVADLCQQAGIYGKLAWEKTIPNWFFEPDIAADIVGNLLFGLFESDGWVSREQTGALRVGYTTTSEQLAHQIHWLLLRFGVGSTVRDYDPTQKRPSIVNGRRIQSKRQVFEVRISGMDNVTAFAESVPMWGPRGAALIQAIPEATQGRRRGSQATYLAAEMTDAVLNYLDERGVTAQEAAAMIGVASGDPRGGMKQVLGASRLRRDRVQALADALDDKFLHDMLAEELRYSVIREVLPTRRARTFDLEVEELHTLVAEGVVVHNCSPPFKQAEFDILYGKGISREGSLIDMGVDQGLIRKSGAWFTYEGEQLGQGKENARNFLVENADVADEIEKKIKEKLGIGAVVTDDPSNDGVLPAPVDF
Format: functional

SMILES	EC50
O=C1C(Cl)=C(NCc2cccnc2)C(=O)c2ccccc21	2.17 µM (active)
Cc1ccc(Nc2cc(C)nn2-c2nc(C)cc(O)n2)cc1	61.4 µM (active)
O=C1C(O)=C/C(=N\c2ccccc2O)c2ccccc21	12.3 µM (active)
CN(C)c1ncc(C2=C(Cl)C(=O)C(N3CCCC3)=C(Cl)C2=O)s1	3.81 µM (active)

What follows are molecules tested on INS1 (assay: beta cell apoptosis inhibitors, cytokine rescue, dose response, luminescence, retest (AID 449756)). Settings: Rattus norvegicus.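 Also: cell death triggered by IL-1 beta plus TNF-alpha plus IFN-gamma mixture; protective hits raise ATP signal compared with cytokine alone wells.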
Format: functional, cell-based

SMILES	AC50
O=C1C(Cl)=C(NCc2cccnc2)C(=O)c2ccccc21	7.26 µM (active)
Cc1ccc(Nc2cc(C)nn2-c2nc(C)cc(O)n2)cc1	0.6 µM (active)
Cc1ccc(C(=O)c2c(C)oc3c2C(=O)C(=O)c2ccccc2-3)cc1	2.4 µM (active)
O=C1C(O)=C/C(=N\c2ccccc2O)c2ccccc21	3.26 µM (active)

Reference: ChEMBL document CHEMBL1201862, “PubChem BioAssay data set” (2004)
